Reference: paper PMC8070582, “Therapeutic Efficacy of a Novel Acetylated Tetrapeptide in Animal Models of Age-Related Macular Degeneration” (International Journal of Molecular Sciences, 2021)
Where “and” joins values, the source holds several entries; their conditions need not be identical. Equal entries are not always repeated. Entries after “also recorded” stand apart in the source; their conditions may differ.

Key:
[1] = tested on: VEGF-induced angiogenesis; design: method as in PMID 10747021; details: slow-releasing hydrogel implants in corneal stroma; assessed on day 12; cited from earlier work
[2] = tested on: choroidal neovascularization (CNV); test: Therapeutic laser-induced CNV mouse model, treatment 10 days after laser irradiation (CNV area); format: in vivo; details: 1 µL of 1.5 mM intravitreal 10 days after laser irradiation; day 4 after treatment
Experimental: […]. Here, the same amount of saline was injected into the control group. After 4 days (14 days after the laser irradiation), an experiment for analyzing a therapeutic effect was carried out by extracting the eyeballs of the mice. The extracted eyeballs were fixed in 4% paraformaldehyde for 12 h, and embedded in paraffin. Sections with a thickness of 4 μm were prepared from paraffin tissue, and subjected to H&E staining. Afterward, an image of a section with the largest choroidal neovascular membrane area was taken from each subject, and the area of the choroidal neovascular membrane was quantitatively analyzed using ImageJ program (NIH, Bethesda, Rockville, MD, USA). In the saline-injected control group, the average of the choroidal neovascular areas was represented as 100%, and a therapeutic effect of each treatment group was analyzed.

[3] = cited from earlier work
[4] = tested on: choroidal neovascularization (CNV); test: Laser-induced CNV mouse model, treatment on the same day as laser irradiation (CNV area); format: in vivo; details: day 7, vs vehicle (p < 0.001)
Experimental: Six-week-old male C57BL/6J mice were purchased from Central Laboratory Animal and then maintained in a specific pathogen free facility in Seoul National University. After deep anesthesia with zolazepam plus tiletamine (3.75 mg/kg, Virbac, Seoul, Korea) and xylazine (7.5 mg/kg, Bayer AG, Leverkusen, Germany), mice were treated with a customized laser indirect ophthalmoscope system (ILOODA) to break Bruch’s membrane (300 μm spot size, 300 mW power, and 100 ms exposure time) as described previously. After the laser irradiation, 10 μL PBS (vehicle), 1 ng of each peptide (RLYE, R(D)LYE and Ac-RLYE), or 145 ng of aflibercept was administered into the vitreous cavity of mice (six per each treatment group) at the same day as laser irradiation. At 7 days after the laser irradiation, the RPE-choroid-scleral complexes were prepared from the enucleated eyes. After immunostaining of the RPE-choroid-scleral complexes with isolectin B4 conjugated with Alexa Fluor-594 (1:100; cat. No. I21413, Invitrogen, Waltham, MA, USA), the CNV area was quantitatively analyzed by the measurement of the area using the ImageJ software. All animal experiments were carried out according to the guidelines of the Ethics Committee for Protection and Use of Experimental Animals of Seoul National University.

retinal vascular leakage = test: Streptozotocin-induced diabetic mouse model, retinal vascular leakage; format: in vivo; details: 1 µL of 1.5 mM intravitreal; 24 h after treatment; vs vehicle; RLYE 0.01 < p < 0.05, Ac-RLYE p < 0.01
Experimental: To prepare a streptozotocin-induced diabetic mouse model, a freshly prepared STZ solution (100 mM) in a citrate buffer (100 mM, pH 4.5) was injected intraperitoneally at 150 mg/kg into the mice, and to prevent hypoglycemic shock, 10% sucrose was sufficiently provided. After two days, blood glucose was measured using an Accu-Chek Performa blood glucose meter (Roche Diagnostics GmbH, Mannheim, Germany), and when non-fasting blood glucose within 1 to 2 weeks was maintained at 300 mg/dl or more, the mice were used as diabetic animal models. […]. Here, the same amount of PBS was injected into the control group. The peptide was injected, and after 24 h, 1 mL (1.25 mg) of FITC-dextran (250 kDa) was injected into the left ventricle of each mouse to allow circulation for approximately 5 min. The mice were euthanized by cervical dislocation, and the eyeballs were extracted and fixed in 4% paraformaldehyde at room temperature for 1 h. The retina was isolated from the fixed eyeball to prepare a retinal flat mount, and vascular leakage was observed under a confocal microscope. Meanwhile, the fluorescence of FITC-dextran leaked from retinal vessels was measured using Fluoview software.

[5] = cited from earlier work; remark: listed apart in the source
[6] = tested on: choroidal neovascularization (CNV); test: Rabbit 4-week laser-induced CNV model (retinal fluorescence intensity); format: in vivo; details: 2000 µg/eye intravitreal; only until day 14 after CNV induction
Description: From the day of laser irradiation to 7, 14, 21, and 28 days after laser induced CNV, the rabbits were instilled with a 1% Mydriacyl eye drop and then anesthetized.

[7] = tested on: choroidal neovascularization (CNV); test: Rabbit 7-week CNV model, treatment 1 week after laser irradiation; format: in vivo
Experimental: From the day of laser irradiation to 7, 14, 21, 28, 35, 42, and 49 days after laser induced CNV, the rabbits were instilled with a 1% Mydriacyl eye drop and then anesthetized.
Fundus photography of retinal angiography was performed at the 42nd day from test substance treatment. Additionally, the eyes were then removed and fixed in 10% formalin solution for 24 h. The cornea, lens, and retina were removed. After washing with PBS, the […] and choroid complex (RPE-choroid complex) just remained from fixed eyes. The CNV area was stained with rhodamine conjugated isolectin B4 (IB4, Sigma-Aldrich, St. Louis, MO, USA) for 24 h at 4 °C. After staining, they were washed in PBS, flat-mounted on a glass slide, and then observed with a fluorescence microscope equipped with a digital camera and photographed. The CNV area was measured by ImageJ software.

[8] = tested on: corneal neovascularization; design: method as in PMID 24240485; details: administered on day 7 after suture placement; 1 week post-treatment; cited from earlier work

ATWLPPR
VEGF-induced angiogenesis [1]: abolish VEGF-induced angiogenesis

Arg-Leu-Tyr-Glu (RLYE; printed: Arg-Leu-Tyr-Glu) [antiangiogenic tetrapeptide derived from the human plasminogen kringle-5 domain]
degree of CNV area reduction compared with vehicle [2]: 55%
occurrence of CNV (CNV area) [2]: significantly reduced the CNV area; also recorded: effectively reduced
serum half-life [3]: 1.2 h
CNV area ([4]; 1 ng/1 µL/eye intravitreal on day of laser irradiation): significantly reduced
retinal vascular leakage (FITC-dextran) (retinal vascular leakage): effectively inhibited

aflibercept: fusion protein of ligand-binding elements of VEGFR-1 and VEGFR-2 fused to the Fc portion of IgG
t1/2 (ocular) [5]: 94.1 h
volume of distribution [5]: 1.4 mL
retinal fluorescence intensity vs vehicle group [6]: significantly reduced
retinal fluorescence intensity vs vehicle control ([7]; 2000 µg/eye intravitreal on day 7 after laser, days 7, 14, 21, 28, 35 and 42 after administration): significantly lower
CNV lesions (CNV area) compared with vehicle control, reduced to ([7]; aflibercept 2000 µg/eye, day 42 after drug administration): 38.9% and 36%
CNV area ([4]; 145 ng/1 µL/eye intravitreal on day of laser irradiation): significantly reduced

bevacizumab: anti-VEGF antibody
degree of reduction of the CNV area compared with vehicle [8]: 46%–60%

ranibizumab: an anti-VEGF therapy (anti-VEGF antibody), positive control
degree of reduction of the CNV area compared with vehicle [8]: 53%–60%
t1/2 (ocular) [5]: 52.4 h
volume of distribution [5]: 2.7 mL
